Experimental data: PMC10938764 (Journal of Nanobiotechnology, 2024)
Ends that are not written are not given here.

Experiments:
IAPs = conditions: cited from earlier work
Source text: (§1) First, the cathepsin B-cleavable SMAC-P, SMAC-P-FRRG ([…]), was conjugated to a DOX through one-step EDC/NHS reaction, resulting in SMAC-P-FRRG-DOX (Fig. 1a and Additional file 1: Figure S1).

[1] = Size distribution and zeta potential by zeta-sizer (DLS); assay type: physicochemical; conditions: Zetasizer, 1 mg/ml; saline or D.W (Figure S3)
[2] = Particle stability (particle size over time) in saline, mouse plasma or serum; assay type: physicochemical
Description: The inset pictures indicate representative images of Aposomes in mouse serum conditions. g Release profiles of free DOX, DOXIL and Aposomes. […] As a control, SMAC-P-FRRG-DOX in MES buffer in the absence of cathepsin B was analyzed using an HPLC system.

MMP-9 = conditions: cited from earlier work
Source text: as §1

caspase-3 = conditions: cited from earlier work
Source text: as §1

cathepsin D = conditions: cited from earlier work
Source text: as §1

cathepsin E = conditions: cited from earlier work
Source text: as §1

cathepsin L = conditions: cited from earlier work
Source text: as §1

[3] = Drug release profile from dialysis membranes; assay type: physicochemical; conditions: very fast release
IAPs in CT26 cells = assay: Intracellular IAPs expression by western blot; assay type: cell-based, mouse; conditions: 48 h
[4] = test system: CT26 colon tumor-bearing mice; assay: In vivo antitumor efficacy
Description: (§2) Antitumor efficacy was assessed by measuring tumor volumes that are calculated as the largest diameter × the smallest diameter^2 × 0.53. To analyze the increase of tumor-infiltrating lymphocytes by antitumor immune response, tumor tissues were collected from mice on day 13 after treatment, and single cells were isolated from tumor tissues using a tumor dissociation kit. Following single cell counting, the cells were incubated with FcBlock for 10 min to avoid non-specific antibody binding. Then, multi-parameter staining was performed at 4 °C for 50 min to identify the following populations within the tumor tissues: (i) CRT-positive cancer cells (CD45^−CRT^+), (ii) mature DCs (CD11c^+CD40^+CD86^+), (iii) cytotoxic T cells (CD45^+CD3^+CD8^+) and (iv) regulatory T lymphocytes (Tregs; CD45^+CD3^+CD4^+CD25^+).

CT26 tumor tissues = assay: Antitumor immune response in tumor tissues (flow cytometry); assay type: in vivo, mice; conditions: day 13 after treatment, 3 mg/kg DOX dose once every three days
Description: as §2

[5] = test system: CT26 colon tumor-bearing mice
Description: as §2

[6] = test system: cancer, normal and immune cells (CT26, 4T1, H9C2, HDF, M0 and M1 macrophages, DCs, T cells); assay: Cytotoxicity study (CCK-8), all cell types; conditions: read-out: IC50 values in all the cell types (span); CCK-8, 48 h, concentrations based on DOX contents
Description: Briefly, 5 × 10^3 cells were seeded in 96-well cell culture plates and cultured at 37 C for 24 h. […] Finally, 20 μl Cell Counting Kit-8 (CCK-8) solution was added and then further incubated for 20 min. The cell viability was measured using a UV/Vis microplate reader.

[7] = test system: CT26 cells co-cultured with bone marrow-derived macrophages (BMDMs); assay: Co-culture assay: phagocytosis of treated CT26 cells by BMDMs; conditions: CT26 treated 2 µM (DOX contents) 48 h, pHrodo labeled; co-cultured 2 h with BMDMs; confocal imaging
Description: For these analyses, bone marrow cells were collected from 5-week-old male BALB/C mice and cultured with differentiation media containing M-CSF (20 ng/mL) for 7 days, followed by labeling with CellTracker Green. […] Then, both cells were co-cultured at 37 C for 2 h, and the phagocytosis of cancer cells was observed using a CLSM.

CT26 cells = assay: Cellular uptake and nuclear localization of DOX fluorescence (confocal); conditions: both naive or Z-FA-FMK-treated CT26 cells; 2 µM, 48 h
Description: The cells were then washed with DPBS, fixed with 4% paraformaldehyde for 10 min, and stained with 4ʹ,6-diamidino-2-phenylindole (DAPI) for 5 min. […] The cellular uptake of each drug in different cell lines were quantified using flow cytometer (CytoFLEX, BECKMAN COULTER, USA).

In the case of AVPIAQ, the “IAP antagonism compared to AVPIAQK, AVPIA and AVPI” value (IAPs) is listed as “potent activity for IAP antagonism compared to other sequences”.

In the case of “AVPIAQFRRG [SMAC-P-FRRG-DOX, prodrug of SMAC mimetic peptide (AVPIAQ), cathepsin B-cleavable peptide (FRRG) and doxorubicin]”, the zeta potential [1] is reported as 14.9 ± 0.814 mV, the “particle stability in mouse plasma” value ([2]; mouse plasma, 1 mg/ml, up to 5 days, particle size) is reported as “remarkable aggregation after 2 days” and the “particle stability in mouse serum” value ([2]; mouse serum, as worded in Conclusions) is reported as “significant aggregation from 48 h”. For the same compound, the “cleavage by MMP-9” value (MMP-9) was “not cleaved”, the “cleavage by caspase-3” value (caspase-3) was “not cleaved” and the “cleavage by cathepsin D” value (cathepsin D) was “not cleaved”. The “cleavage by cathepsin E” value (cathepsin E) was “not cleaved” and the “cleavage by cathepsin L” value (cathepsin L) was “not cleaved”.

In the case of “AVPIAQFR [peptide released from SMAC-P-FRRG-DOX by cathepsin B]”, the “IAPs antagonism activity of cathepsin B cleavage product” value (IAPs) is given as “comparable IAPs antagonism activity to AVPIAQ”.

In the case of COc1cccc2c1C(=O)c1c(O)c3c(c(O)c1C2=O)C[C@@](O)(C(=O)CO)C[C@@H]3O[C@H]1C[C@H](N)[C@H](O)[C@H](C)O1.Cl [free DOX, Doxorubicin hydrochloride], the “time of release from dialysis membranes” value [3] is reported as ≤ 6 h, the “intracellular IAPs expression levels” value (IAPs in CT26 cells) is reported as “significantly upregulated” and the “median survival / survival of mice” value ([4]; 3 mg/kg DOX dose once every three days) is reported as 14 days. For the same compound, the “tumor volume on day 14” value ([4]; i.v. 3 mg/kg DOX dose once every three days, n = 5, mean ± SD) was 556.2 ± 149.82 mm^3, the “percentage of CRT-positive tumor cells (CD45−CRT+) within the tumor tissues” value (CT26 tumor tissues) was 57.67 ± 0.91% and the “mice died within 13 days” value ([5]; 3 mg/kg DOX dose i.v. once every three days) was 4 out of 5. The “body weight loss and tissue damage in major organs” value ([5]; 3 mg/kg DOX dose once every three days, H and E of major organs) was “significant body weight loss along with extensive tissue damages”, the IC50 [6] was 3 to 380 nM and the “phagocytosis of CT26 cells by BMDMs” value [7] was 2.1 ± 0.21%. For the same compound, the “free DOX fluorescence detected in the nuclei” value (CT26 cells) was “more than 90%”.
